Reference: patent US20050153985A1, “Methods of treating acute inflammation in animals with p38 map kinase inhibitors” (priority 2003, published 2005)
Entries after “also recorded” stand apart in the source; their conditions may differ.

Test system: E. coli (MacDonald 487) induced mastitis
Experiment: E. coli induced mastitis in lactating cows, treatment 13 hours after intramammary challenge
Format: in vivo, lactating Holstein cows
Conditions: 10 mg/kg IV; for mean E. coli colony counts in milk after treatment: 11-168 hours, FIG. 10; for mean E. coli colony counts in milk after treatment / milk somatic cell count (SCC) / mean whey PGE2 levels after treatment: compared to infected; for mean E. coli colony counts in milk after treatment / milk clinical scores / gland clinical scores: non-medicated controls; for whey PGE2 levels at 11 hours after treatment: relative to level at time 0; for milk produced during the 13 days after treatment: based on mean daily milk production values from FIG. 2, infected, non-medicated cow 365 lbs; for cumulative clinical scores: compared to controls, FIG. 5; for milk production loss associated with mastitis following treatment: compared to infected cows treated with vehicle, FIG. 2; for milk somatic cell count (SCC) / mean whey PGE2 levels after treatment: non-medicated control cows; for milk somatic cell count (SCC): FIG. 6; for mean whey PGE2 levels after treatment: FIG. 9; for milk produced during the 13 days after treatment compared with infected, non-medicated cow: comparison in words; for total WBC numbers (peripheral blood) / total PMN numbers (peripheral blood): data analyzed for 0-72 hours, vs controls; for total WBC numbers (peripheral blood): FIG. 7; for total PMN numbers (peripheral blood): FIG. 8; for milk clinical scores / gland clinical scores: vs infected; for milk clinical scores: FIG. 3; for gland clinical scores: FIG. 4
Excerpt: Thirty-three lactating Holstein cows were randomly allotted to 5 treatment groups blocked by milk production and days in milk. Milk and blood samples and temperature data were collected at the morning milking on day −1. One normal quarter was selected from each cow based on clinical scores and California Mastitis Test (CMT) results performed at morning milking on day −1. After the evening milking on […], selected quarters were infused with approximately 30 cfu of E. coli (MacDonald 487). Milk and blood samples and temperature data were collected prior to treatment at the morning milking on day 0. Cows were treated after the morning milking on day 0 according to the study design. After treatment, milk and blood samples and temperature data were collected at 11, 24, 35, 48, 72, 144, 168, 192, and 216 hours. Clinical scores of infused quarters and milk production were assessed at each milking. Milk samples were analyzed for culture (E. coli), SCC, TNF-α and PGE2 and blood leukograms were determined. [table] Assessment of test article efficacy was determined based upon a comparison of the treatment effect on each variable versus the challenged, non-medicated group. Data were analyzed using the MIXED procedure of PC-SAS version 6.12. The model included treatment, time and their interaction. Covariance within cows across time was modeled using the Repeated statement analysis with a […] covariance structure to account for unequally spaced sampling times. Tests for significance (P≦0.10) were based upon the main treatment effect compared with the challenged, non-medicated group. The P value of ≦0.10 was selected based on the number of animals per treatment group and the conservative nature of the SAS procedure. […] In all, 27 of 27 quarters challenged developed clinical mastitis.

SMILES	mean E. coli colony counts in milk after treatment	whey PGE2 levels at 11 hours after treatment	milk produced during the 13 days after treatment [lbs]	cumulative clinical scores	milk production loss associated with mastitis following treatment	milk somatic cell count (SCC)	mean whey PGE2 levels after treatment	milk produced during the 13 days after treatment compared with infected, non-medicated cow	total WBC numbers (peripheral blood)	total PMN numbers (peripheral blood)	milk clinical scores	gland clinical scores
Nc1nccc(-c2c(-c3ccc(F)cc3)ncn2C2CCNCC2)n1 [MAPKi #1]	significantly decreased; also recorded: Significant improvement	decline	847	significantly lower; also recorded: Significant improvement	significantly less milk production loss; also recorded: Significant improvement	trend towards lower SCC	significant reduction; also recorded: Significant improvement	more than twice as much milk	returned to pre-challenge levels significantly faster; also recorded: Significant improvement	returned to pre-challenge levels significantly faster	significantly improved; also recorded: Significant improvement	Significantly improved; also recorded: Significant improvement
CC(C)n1c(=O)n(C)c2cc(-c3[nH]c(-c4cnccn4)nc3-c3ccc(F)cc3)ccc21 [MAPKi #2]	decline in milk E. coli numbers compared to controls but the difference was not significant; also recorded: reduced	remained at the same level	689	significantly lower; also recorded: Significant reductions			significant reduction	produced more milk than control cows	returned to pre-challenge levels significantly faster	returned to pre-challenge levels significantly faster	significantly improved; also recorded: Significant reductions	Significantly improved; also recorded: Significant reductions
CC(=O)Nc1nc(-c2cccc(C)c2)c(-c2ccc3c(c2)n(C)c(=O)n3CC(C)C)[nH]1 [MAPKi #3]	did not show a decline	continue to rise	366		no trend for improved	trend towards lower SCC	significant reduction; also recorded: significantly reduced	produced the same amount of milk as infected, non-medicated control cows			no trend for improved	Significantly improved
